Assay results: US5461067A, “Retroviral protease inhibiting compounds” (priority 1994, dated 1995)

Legend:
HIV-13B in MT4 cells = test: Anti-HIV activity (inhibition of cytopathic effect of HIV) in MT4 cells; assay type: cell-based; details: Human immunodeficiency virus 1, concentration giving 50% inhibition of cytopathic effect of HIV
Text: (§1) The IC50 is the concentration of compound that gives 50% inhibition of the cytopathic effect of HIV. The LC50 is the concentration of compound at which 50% of the cells remain viable.

[1] = Cytotoxicity in MT4 cells; assay type: cell-based; details: human, concentration at which 50% of the cells remain viable, read-out: LC50 (the source's name)
Text: as §1

HIV-1 protease = HIV-1 protease (Human immunodeficiency virus type 1 group M subtype B, UniProt P04585); test: Fluorogenic assay for screening inhibitors of HIV protease; details: for inhibition at 0.0005 µM: pH 4.5, read-out: Percent Inhibition
Description: The inhibitory potency of the compounds of the invention can be determined by the following method.
A compound of the invention is dissolved in DMSO and a small aliquot further diluted with DMSO to 100 times the final concentration desired for testing. The reaction is carried out in a 6×50 mm tube in a total volume of 300 microliters. The final concentrations of the components in the reaction buffer are: 125 mM sodium acetate, 1M sodium chloride, 5 mM dithiothreitol, 0.5 mg/ml bovine serum albumin, 1.3 μM fluorogenic substrate, 2% (v/v) dimethylsulfoxide, pH 4.5. After addition of inhibitor, the reaction mixture is placed in the fluorometer cell holder and incubated at 30° C. for several minutes. The reaction is initiated by the addition of a small aliquot of cold HIV protease. The fluorescence intensity (excitation 340 nm, emmision 490 nM) is recorded as a function of time. The reaction rate is determined for the first six to eight minutes. The observed rate is directly proportional to the moles of substrate cleaved per unit time. The percent inhibition is 100×(1-(rate in presence of inhibitor)/(rate in absence of inhibitor)).

CC(C)[C@H](NC(=O)OCc1ccccn1)C(=O)N[C@@H](Cc1ccccc1)[C@@H](O)CN(Cc1ccccc1)NC(=O)OC(C)(C)C [Example 2E, 5S-N-((2-Pyridinyl)methoxycarbonyl)valinylamino-2-t-butyloxycarbonylamino-4S-hydroxy-1,6-diphenyl-2-azahexane]
IC50 (HIV-13B in MT4 cells): 0.78 to 1.23 µM | CC50 [1]: 56 µM | IC50 (HIV-1 protease): 0.0005 µM | inhibition at 0.0005 µM (HIV-1 protease): 50%

CC(C)c1nc(CN(C)C(=O)N[C@H](C(=O)NN(Cc2ccccc2)C[C@H](O)[C@H](Cc2ccccc2)NC(=O)OCc2cncs2)C(C)C)co1 [Example 12, 5S-((5-Thiazolyl)methoxy)Carbonylamino-2-N-((N-methyl-N-((2-isopropyl-4-oxazolyl)methyl)amino)carbonyl)-L-valinylamino-4S-hydroxy-1,6-diphenyl-2-azahexane]
IC50 (HIV-13B in MT4 cells): 0.1 to 0.105 µM | CC50 [1]: 53 µM | inhibition at 0.0005 µM (HIV-1 protease): 78%

CCc1cccc(CN(C)C(=O)N[C@H](C(=O)NN(Cc2ccccc2)C[C@H](O)[C@H](Cc2ccccc2)NC(=O)OCc2ccccc2)C(C)C)n1 [Example 10, 5S-(Benzyloxycarbonyl)amino-2-N-((N-methyl-N-((6-ethyl-2-pyridinyl)methyl)amino)carbonyl)-L-valinylamino-4S-hydroxy-1,6-diphenyl-2-azahexane]
IC50 (HIV-13B in MT4 cells): 0.83 to 1.1 µM | CC50 [1]: 19 µM | IC50 (HIV-1 protease): 0.0005 µM | inhibition at 0.0005 µM (HIV-1 protease): 50%
